Tests used:
[1] = molecular target: αSN (alpha synuclein) (Homo sapiens, UniProt P37840); experiment: Inhibition of αSN fibrillization, ThT fluorescence assay; format: biochemical
Experimental: FIGS. 2A-B. (A) Inhibition of aSN fibrillization by D-687 and D-688. The drugs were incubated with aSN over a period of six days and the fibrilization was measured by ThT fluorescence assay. Data Values shown are means±SEMs of three independent experiments. (B) PC12 cells were treated with 10 μM prefabricated aSN aggregates formed in presence of drugs collected at day 0 and day 6. Values shown are means±SEMs of three independent experiments performed in 4-6 replicates. One way ANOVA analysis followed by Tukey's Multiple Comparison post hoc test were performed. (*p<0.01 compared to the control).
We assessed the ability of our compounds, D-687 and D-688, to alter aggregation and cytotoxicity after co-incubating αSN with these drugs for 6 days followed by evaluation of ThT fluorescence activity and cell viability experiment with the PC12 cells. […] In order to maintain identical condition, cellular viability was determined by using samples from various experiments diluted to maintain a final concentration of 10 μM of αSN and 20 μM of drugs.
FIG. 2 provides (A) Inhibition of aSN fibrillization by D-687 and D-688. The drugs were incubated with aSN over a period of six days and the fibrilization was measured by ThT fluorescence assay. Data Values shown are means±SEMs of three independent experiments. […]

[2] = molecular target: T1, Aβ1-42 fibrils (Homo sapiens, UniProt P05067); experiment: Dissociation of preformed Aβ1-42 aggregates, ThT fluorescence; format: biochemical; details: Aβ1-42 fibrils 10 μM, test compounds 20 μM, 24 h
T1 construct: disaggregation activity of Aβ1-42 peptide
Experimental: (§1) FIGS. 3A and 3B. Inhibition and dissociation of Aβ1-42 oligomer formation by: a) ThT fluorescence of Aβ1-42 (10 μM) with or without incubation with test compounds (20 μM) for 24 h. The ThT fluorescence of Aβ1-42 at 0 h was taken as 100%. b) Aβ1-42 fibrils (10 μM) were incubated with test compounds (20 μM) for a period of 24 h. The ThT fluorescence of Aβ1-42 aggregates at 0 h was considered as 100%
as §1, with “3B show inhibition” for “3B. Inhibition”
(§2) Similar to the effect of the drugs on α-syn, interaction of compounds with Aβ1-42 peptide clearly indicated a significant effect in inhibiting aggregation in a time dependent manner as indicated by decrease in ThT activity (FIG. 3a). Similarly, test compounds were able to decrease ThT activity of preformed Aβ aggregates in a time dependent manner, reflecting its effect in disrupting structure of aggregates (FIG. 3b). On the other hand, incubation of aggregates itself led to a gradual increase in ThT activity (FIG. 3b).

[3] = molecular target: T2, Aβ1-42 peptide (Homo sapiens, UniProt P05067); experiment: Inhibition of Aβ1-42 aggregation, ThT fluorescence; format: biochemical; details: Aβ1-42 10 μM, test compounds 20 μM, 24 h
T2 construct: disaggregation activity of Aβ1-42 peptide
Experimental: as §1
as §1, with “3B show inhibition” for “3B. Inhibition”
as §2

[4] = molecular target: D2L receptor (Rattus norvegicus, UniProt P61169); experiment: biochemical
[5] = molecular target: D3 receptor (UniProt P19020); format: binding; details: read-out: Ki (nM) D3, [3H]spiroperidol; cloned D3 in HEK-293 cells; mean ± SEM of 3-6 experiments

T2 sequence (P05067 672-713 limits assumed): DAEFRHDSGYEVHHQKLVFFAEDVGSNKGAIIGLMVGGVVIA
T1 sequence (P05067 672-713 limits assumed): as above
D2L receptor, sequence (P61169 whole entry): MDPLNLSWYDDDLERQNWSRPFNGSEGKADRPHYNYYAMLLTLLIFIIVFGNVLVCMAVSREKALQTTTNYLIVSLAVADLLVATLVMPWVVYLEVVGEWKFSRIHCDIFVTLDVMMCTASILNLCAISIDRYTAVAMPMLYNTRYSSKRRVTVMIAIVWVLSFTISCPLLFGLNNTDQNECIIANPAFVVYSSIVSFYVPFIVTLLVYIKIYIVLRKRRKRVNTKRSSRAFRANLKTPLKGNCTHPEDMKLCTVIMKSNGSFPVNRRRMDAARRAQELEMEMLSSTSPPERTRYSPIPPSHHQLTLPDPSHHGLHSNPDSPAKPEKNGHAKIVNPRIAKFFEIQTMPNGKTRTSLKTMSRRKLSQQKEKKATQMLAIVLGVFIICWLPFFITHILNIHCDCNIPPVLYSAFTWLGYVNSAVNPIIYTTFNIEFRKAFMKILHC

Compound | Inhibition of aggregation of aSN protein (overall conclusion) [1] | Disaggregation of preformed Aβ1-42 aggregates [2] | Inhibition of aggregation of Aβ1-42 peptide [3] | Ki [4] | Ki [5]
CCN(CC)CCN1CCN(c2ccc(-c3ccc(O)c(O)c3)cc2)CC1 [Compound D690, 4′-[4-(2-Diethylamino-ethyl)-piperazin-1-yl]-biphenyl-3,4-diol] | potently inhibited aggregation | disaggregate | potently inhibited aggregation |  | 
4′-[4-(2-Diisopropylamino-ethyl)-piperazin-1-yl]-biphenyl-3,4-diol [Compound D-687] | potently inhibited aggregation | disaggregate | potently inhibited aggregation |  | 
CCCN(CCc1cc(O)c(CCN(CCC)[C@H]2CCc3nc(N)sc3C2)cc1O)[C@H]1CCc2nc(N)sc2C1 [12 (D-673), 2,5-bis(2-(((S)-2-amino-4,5,6,7-tetrahydrobenzo[d]thiazol-6-yl)(propyl)amino)-ethyl)benzene-1,4-diol] |  |  |  | 0.0547 ± 0.0033 µM | 6.87 ± 0.11 nM
